The values that follow come from ChEMBL document CHEMBL1201862, “PubChem BioAssay data set” (2004).

Assay [1] in a line: HEK293 Cytotoxicity Assay Measured in Cell-Based System Using Plate Reader - 7071-01_Inhibitor_Dose_CherryPick_Activity_Set2. Format: functional.
The test system of the next assay is HEK293. Kind of assay: viability loss in HEK293T cells – cell-based, ATP luminescence, cherry-pick samples, cytotoxicity control, dose response (AID 687005).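 Further: cells exposed to compound for 48 hours.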 Conditions: Homo sapiens. Format: functional.
Another assay has as its system Cryptococcus neoformans. Kind of assay: PubChem AID 686997. Format: functional, organism-based.
Assay [2] can be described thus: OVCAR8 cell viability loss – plate reader, dry powder samples, PAX8 project, dose response (AID 743197). Conditions: OVCAR-8. In kind it is functional, cell-based.
In a further assay the target is Paired box protein Pax-8 (Homo sapiens, UniProt Q06710). Kind of assay: PAX8 transcriptional activity inhibition in RMG-I – RMG-I cells, luciferase, cherry-pick, dose response (AID 687027).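 Further: luciferase reporter driven by Pax8 target thyroperoxidase promoter measured by SteadyGlo luminescence.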 Format: functional, cell-based.
Assay [3] is described as follows: A2780 cell killing – plate reader, dry powder samples, cytotoxicity control, dose response (AID 743046). In kind it is functional, cell-based.
The target of the next assay is Albumin (Bos taurus, UniProt P02769). Kind of assay: Counterscreen for inhibitors of T-cell receptor (TCR)-CD3 interaction: Fluorescence-based biochemical high throughput dose response assay to identify inhibitors of T-cell receptor (TCR)-CD3 interaction using a TAMRA-labeled BSA probe. Format: functional. Background: The purpose of a counterscreen is to sort out artefacts and off-target activity.

Assay [4] deals with T1, Endoribonuclease toxin MazF (Escherichia coli K-12, UniProt P0AE70).
T1 sequence (P0AE70 whole entry): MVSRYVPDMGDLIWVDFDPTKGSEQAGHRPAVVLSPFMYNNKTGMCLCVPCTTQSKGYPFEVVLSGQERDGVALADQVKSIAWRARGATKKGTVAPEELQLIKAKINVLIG
Briefly: activation of MazEF endoribonuclease cleavage – biochemical, fluorescence, single-stranded RNA substrate, uHTS hits, dose response (AID 588481). In kind it is functional.

Assay [5] addresses T1, Endoribonuclease toxin MazF. Briefly: substrate-only fluorescence increase artefacts – biochemical, single-stranded RNase substrate, counter-screen for MazEF activator project, dose response (AID 588502). In kind it is functional.
A short description of assay [6]: viability loss in THP-1 monocytes – THP-1 cells, cytotoxicity control for Vif-APOBEC3G degradation inhibitor project, dose response (AID 1117359). Format: functional. Conditions: THP-1.
The target of assay [7] is G-protein coupled receptor 183 (Homo sapiens, UniProt P32249). Briefly: SAR confirmation of small molecule antagonists of the EBI2 receptor via a luminescent beta-arrestin assa. In kind it is functional.
Assay [8] can be described thus: toxicity toward immortalized ovarian surface epithelium – cell-based, plate reader, dry powder samples, cytotoxicity control for PAX8 inhibitor project, dose response (AID 743045). In kind it is functional.
Assay [9] is described as follows: OVCAR-3 cell viability loss – plate reader, dry powder samples, PAX8 inhibitor project, dose response (AID 743044). Format: functional, cell-based.
A short description of assay [10]: IGROV1 cell killing – plate reader, dry powder samples, PAX8 inhibitor project, dose response (AID 743043). Conditions: IGROV-1. In kind it is functional, cell-based.
Assay [11] is described as follows: cells. To be noted: HEK293.
Assay [12] can be described thus: cells.
Assay [13] in a line: rise of 2N DNA cells, HeLa – IC50, dose response (AID 1117349). Format: functional, cell-based.
Assay [14] is described as follows: rise of 4N DNA cells, HeLa – IC50, dose response (AID 1117351). In kind it is functional, cell-based.
Assay [15] concerns the target T2, Oxysterols receptor LXR-beta (Homo sapiens, UniProt P55055).
T2 sequence (P55055 whole entry): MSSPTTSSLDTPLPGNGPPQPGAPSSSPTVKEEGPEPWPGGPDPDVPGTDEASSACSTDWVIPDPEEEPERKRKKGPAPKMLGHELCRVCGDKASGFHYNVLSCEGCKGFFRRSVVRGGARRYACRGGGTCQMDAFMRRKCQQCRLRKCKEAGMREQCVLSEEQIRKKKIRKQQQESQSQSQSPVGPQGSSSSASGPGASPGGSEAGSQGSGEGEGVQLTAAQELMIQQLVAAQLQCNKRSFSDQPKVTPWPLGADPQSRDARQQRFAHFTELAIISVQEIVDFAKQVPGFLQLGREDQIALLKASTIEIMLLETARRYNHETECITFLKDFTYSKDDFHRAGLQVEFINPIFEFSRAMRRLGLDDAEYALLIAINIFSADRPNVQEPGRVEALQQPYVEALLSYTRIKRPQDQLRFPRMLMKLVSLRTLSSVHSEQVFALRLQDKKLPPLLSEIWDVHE
Format: functional, cell-based.

Assay [16] concerns the target T2, Oxysterols receptor LXR-beta. Briefly: LXR agonists, Gal4 luciferase reporter, dose response, counter-screen for ssDAF-12 agonist project, cell-based, luminescence, HEK293, S. stercoralis campaign (AID 720737). Format: functional. To be noted: read-out: IC50 (the source's name). (In general: In a reporter assay the amount or activity of a reporter protein is the signal.)

Assay [17] can be described thus: cells. This is another data set of the same source.
A short description of assay [18]: Luminescence-based cell-based high throughput dose response assay to identify activators of the DAF-12 from the parasite S. stercoralis (ssDAF-12). In kind it is functional.
The target in assay [19] is NAD-dependent protein deacylase sirtuin-5, mitochondrial (Homo sapiens, UniProt Q9NXA8). Briefly: sirtuin-5 deacylation blockers, concentration series – biochemical, fluorescence imaging, cherry-pick, set 5, dose response (AID 720591).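 Further: desuccinylation of succinyl peptide AMC substrate read as fluorescence after trypsin release; potency of inhibitors that lower fluorescence and may act on trypsin instead.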
The nature of assay [20]: loss of viability in HepG2 cells – cell-based, CellTiter-Glo, cherry-picked, cytotoxicity control for Shn3 inhibitor project, dose response (AID 624134). Format: functional. Background: ATP-based viability assays read luminescence as a measure of living cells.
Assay [21] in a line: non-specific 3'UTR reporter inhibition in Clone20-Shn3RL – cell-based, Renilla luciferase, cherry-picked, counter-screen for Shn3 inhibitor project, dose response (AID 624133). Format: functional.
A short description of assay [22]: Shn3 3'UTR reporter signal decrease – cell-based, Clone20 osteoblasts, firefly luciferase, cherry-pick, set 2, Schnurri-3 inhibitor project, dose response (AID 720490).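 Further: actives lower the luminescence signal as inhibitors.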 Format: functional.
Assay [23] can be described thus: reduction of Shn3 3'UTR-driven luciferase in osteoblasts – cell-based, Clone20 osteoblasts, firefly luciferase, cherry-picked, dose response (AID 624132).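 Further: firefly luciferase luminescence from reporter carrying the Shn3 3'UTR in osteoblasts.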 Format: functional.
Assay [24] addresses T3, Low molecular weight phosphotyrosine protein phosphatase (Homo sapiens, UniProt P24666).
T3 sequence (P24666 whole entry): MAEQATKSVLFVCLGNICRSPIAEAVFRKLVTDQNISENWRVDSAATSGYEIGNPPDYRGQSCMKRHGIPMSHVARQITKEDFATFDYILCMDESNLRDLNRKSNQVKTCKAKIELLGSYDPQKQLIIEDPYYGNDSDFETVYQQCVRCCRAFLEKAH
Briefly: inhibition of human LMPTP enzyme activity – biochemical, absorbance, pNPP substrate, LMPTP-A isoform, set 2, orthogonal assay, dose response (AID 743308). Format: functional.

The target in assay [25] is T3, Low molecular weight phosphotyrosine protein phosphatase. Briefly: inhibition of LMPTP-A enzymatic activity – biochemical, OMFP substrate, fluorescence intensity, set 2, dose response (AID 743307). In kind it is functional.

Active and inactive are the calls of the source. Where only a bound is given, the exact number is not on record here.

Paired box protein Pax-8, sequence (Q06710 whole entry): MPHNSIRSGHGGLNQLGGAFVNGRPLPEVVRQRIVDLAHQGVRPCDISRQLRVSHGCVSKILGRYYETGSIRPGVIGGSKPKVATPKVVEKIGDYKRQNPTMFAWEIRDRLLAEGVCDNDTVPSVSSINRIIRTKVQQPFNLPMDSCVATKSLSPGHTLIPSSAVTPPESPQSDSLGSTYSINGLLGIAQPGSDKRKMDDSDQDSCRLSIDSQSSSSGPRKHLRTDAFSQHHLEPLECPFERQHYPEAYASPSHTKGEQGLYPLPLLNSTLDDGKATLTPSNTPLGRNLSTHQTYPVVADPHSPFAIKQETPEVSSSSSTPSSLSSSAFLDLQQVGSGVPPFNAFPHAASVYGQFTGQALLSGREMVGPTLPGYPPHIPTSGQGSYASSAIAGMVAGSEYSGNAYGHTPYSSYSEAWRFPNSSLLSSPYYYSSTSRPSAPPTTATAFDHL
G-protein coupled receptor 183, sequence (P32249 whole entry): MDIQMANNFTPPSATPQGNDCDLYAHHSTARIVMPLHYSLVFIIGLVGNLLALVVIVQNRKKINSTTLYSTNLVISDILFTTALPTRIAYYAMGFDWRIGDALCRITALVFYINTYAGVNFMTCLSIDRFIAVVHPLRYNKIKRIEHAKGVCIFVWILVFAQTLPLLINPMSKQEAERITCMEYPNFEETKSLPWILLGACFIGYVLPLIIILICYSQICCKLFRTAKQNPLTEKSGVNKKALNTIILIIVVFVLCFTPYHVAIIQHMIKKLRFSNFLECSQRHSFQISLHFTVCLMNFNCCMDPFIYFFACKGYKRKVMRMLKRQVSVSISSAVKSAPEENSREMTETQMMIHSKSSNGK
NAD-dependent protein deacylase sirtuin-5, mitochondrial, sequence (Q9NXA8 whole entry): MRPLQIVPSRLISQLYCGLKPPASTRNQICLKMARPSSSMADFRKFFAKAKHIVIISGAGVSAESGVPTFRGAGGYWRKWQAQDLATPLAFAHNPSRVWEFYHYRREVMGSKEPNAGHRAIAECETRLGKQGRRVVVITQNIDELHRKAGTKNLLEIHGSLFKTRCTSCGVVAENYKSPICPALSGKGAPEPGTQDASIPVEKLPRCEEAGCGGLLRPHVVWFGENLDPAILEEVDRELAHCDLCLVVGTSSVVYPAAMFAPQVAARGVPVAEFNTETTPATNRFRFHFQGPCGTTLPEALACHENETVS
Albumin, sequence (P02769 whole entry): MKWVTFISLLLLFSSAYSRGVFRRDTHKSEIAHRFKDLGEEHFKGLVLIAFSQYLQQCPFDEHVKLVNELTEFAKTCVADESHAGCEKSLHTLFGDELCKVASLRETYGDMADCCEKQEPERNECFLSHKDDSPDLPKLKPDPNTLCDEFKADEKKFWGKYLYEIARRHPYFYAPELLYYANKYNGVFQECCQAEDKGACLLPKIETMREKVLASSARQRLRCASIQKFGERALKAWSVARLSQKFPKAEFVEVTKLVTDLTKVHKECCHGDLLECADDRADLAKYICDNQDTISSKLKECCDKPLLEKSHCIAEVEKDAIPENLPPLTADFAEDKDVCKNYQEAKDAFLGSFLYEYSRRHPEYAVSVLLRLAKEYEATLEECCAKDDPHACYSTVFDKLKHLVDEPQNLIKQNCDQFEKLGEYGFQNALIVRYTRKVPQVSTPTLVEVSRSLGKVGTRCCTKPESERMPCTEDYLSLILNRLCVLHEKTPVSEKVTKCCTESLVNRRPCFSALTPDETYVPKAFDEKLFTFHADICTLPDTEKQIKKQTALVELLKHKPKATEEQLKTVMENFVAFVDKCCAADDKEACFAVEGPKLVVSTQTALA

A word on the AC50: it is the concentration at which the activity in the assay is half-maximal. As for `COC(=O)C1=C(C)N(CC(C)C)C(=S)NC1c1ccc(F)cc1` (stereo unspecified), the AC50 in [1] is 40.3 µM (active); in the assay with HEK293, 40.3 µM (active); in the assay on Cryptococcus neoformans, > 84 µM (inactive).

With `COc1ccc(-c2ccc3c(c2)[C@@H]2[C@@H](CCN2C(=O)NC2CCCCC2)[C@@H](CO)N3C)cc1`, the AC50 in [2] is 37.8 µM (active); at Paired box protein Pax-8, 14.5 µM (active); in assay [3], 0.292 µM (active).

A word on the IC50: it is the concentration that gives 50% inhibition. Take `COC(=O)CC1(C(=O)OC)Nc2cc(Cl)c(Cl)cc2S(=O)(=O)N1O` (stereo unspecified): at Albumin, the IC50 is > 94.2 µM (inactive). The values for the EC50 in assay [4] and in assay [5] were 1.14 µM (active) and > 99 µM (inactive), respectively.

The CC50 is the concentration at which the toxic effect on the cells reaches its halfway point. For the compound `CCC(C)(c1nnnn1-c1c(C)cccc1C)N(N=O)c1ccccc1Cl` (stereo unspecified), the CC50 in assay [6] is > 40 µM (active).

For `O=C(/C=C/c1ccc(Br)cc1)N1CCN(C(=O)c2ccc(C(F)(F)F)cc2)CC1`, the IC50 in assay [7] is 0.00188 µM (active).

For the compound `Cc1ccc(S(=O)(=O)Nc2ccc3c(c2)C(=O)N([C@H](C)CO)C[C@@H](C)[C@@H](CN(C)Cc2ccc(C(F)(F)F)cc2)OCCCC[C@@H](C)O3)cc1`, the AC50 is 39.6 µM (active) in [2]; 53.7 µM (active) in [8]; 5.57 µM (active) at Paired box protein Pax-8; 36 µM (active) in assay [9]; 54.4 µM (active) in [10].

Consider `Cn1c2ccccc2c(=O)c2ccc(F)cc21`, for which the AC50 in “cells [11]” is > 52 µM (inactive); in the assay “cells [12]”, 7.33 µM (active).

In the case of `CCCCCCCCCCCCCCCC[N+](C)(C)Cc1ccccc1` [CETALKONIUM CHLORIDE], the IC50 in assay [13] and in assay [14] was > 10 µM (inactive) throughout.

Regarding `O=[N+]([O-])c1ccc2oc(-c3cccc(O)c3)nc2c1`, the EC50 in assay [15] was > 67.6 µM (inactive); in assay [16], > 67.5 µM (inactive); in the assay “cells [17]” it was > 67.6 µM (inactive). The IC50 in [18] was > 67.5 µM (inactive).

In the case of `CCOc1ccc(CCN2C(=O)C(=O)N([C@@H](Cc3ccccc3)CN3CCC[C@@H]3CN3C(=O)C(=O)NC[C@@H]3Cc3ccc(O)cc3)C[C@@H]2Cc2ccccc2)cc1`, the AC50 in assay [19] was > 30 µM (inactive).

For the compound `Cc1ccc(CNC(=O)c2cc3c(C)nc4ccccc4c3o2)cc1`, the AC50 in assay [20] is 64.3 µM (active); in assay [21], 12.2 µM (active); in assay [22], 4.02 µM (active); in assay [23], 2.49 µM (active).

Take `c1ccc(-c2nc(NC3CCCCC3)c3ccccc3n2)cc1`: the IC50 in assay [24] was > 80 µM (inactive); in assay [25], 19.1 µM (active).
